Several values for one entry are separate records, joined by “and”; a condition that tells them apart may be missing. Identical values can stand only once. Like-named read-outs stand apart in the source and are kept apart here.
Key:
[1] = system: firefly luciferase expressing T. gondii strains (GT1, RH, ME49, CTG, MAS, RUB, FOU, VAND); assay: Luciferase-based growth assay, FLuc parasites of diverse genotypes; type: cell-based; conditions: Toxoplasma gondii
Procedure: (§1) In vitro cultures of HFF cells containing mature vacuoles were scraped, passaged through 23 g blunt end needles, and filtered using 3 micron filters. Purified parasites were resuspended in 350 μL of cytomix plus[49] and combined in a BTX 4 mm gap cuvette with 30 μL of PCR amplified templates corresponding to mutations of interest and 10 μg of pSAG1:Cas9-GFP U6:sgTgPheRS^[mut] (in 20 μL, 400 μL total volume, see Supplementary Data 1 for sgRNA sequences) prior to electroporation using a BTX ETM 830 electroporator. Amplified templates for TgPheRS mutations were generated from gBlocks (Integrated DNA Technologies, Coralville, IA, USA) that contain a BclI restriction site that replaces the PAM sequence to protect the repair template from being cut by Cas9. At 16 h post-transfection, transgenic parasites expressing pSAG1:Cas9-GFP were sorted on a Sony SH800 FACS sorter directly into 96-well plates. Single clones containing TgPheRS^[mut] were identified by amplifying a ~500 bp PCR fragment around introduced mutation followed by digestion using BclI (New England Biolabs) BclI sensitive clones were expanded and the locus was Sanger sequenced to verify incorporation of each independent mutation. To generate firefly luciferase (FLuc) expressing strains, freshly harvested parasites were combined with 20 μg of pTUB-FLUC DHFR flox plasmid and 10 μg of pSAG1:Cas9-GFP U6:sgUPRT[50] (in 50 μL cytomix plus) and transformed by electroporation as described above. Parasites were allowed to recover overnight followed by sequential selection with pyrimethamine (1.0 μM) and 5-flurodeoxyuracil (FUDR, 10 μM), as described previously. Stable clones were isolated by limiting dilution and a clone from each genetic background selected based on high luciferase activity (Table 1).
All assays were carried out in a 96-well plate format containing confluent HFF monolayers to support parasite growth. To avoid edge effects, only the inner 60 wells of each plate were used. All compounds described were provided by the Broad Institute as 10 mM stocks in 100% DMSO and stored at −80 °C prior to use. Pyrimethamine (Sigma-Aldrich) was prepared as 5 mM stock in 100% DMSO and stored at −20 °C prior to use.

[2] = system: T. gondii RH-FLuc parent; assay: Luciferase growth assay, parental line of resistance selection; type: cell-based, Toxoplasma gondii; conditions: for luciferase signal (raw): parent
Text: […]. […] […].

[3] = system: T. gondii RHΔΔ TgPheRS[L497I]; assay: Tachyzoite lytic assay, L497I mutant; type: cell-based, Toxoplasma gondii; conditions: for % Parasite Growth: L497I; for EC50: Toxoplasma gondii
Procedure: as §1
Parasite growth on HFF monolayers was monitored using a 96-well plate-based lytic assay modified from a previously described protocol. […]. Freshly harvested parasites (7.5 × 10^4 /well) were added to each well (in 100uL volume) to reach the final concentration range (10 μM to 0.0005 μM, 200 μL/well, 0.1% DMSO). Plates were incubated for 72 h at 37 °C then culture medium was aspirated and monolayers were fixed with 100% ethanol (ETOH) for 5 min at room temperature (RT). After rinsing with water, wells were stained with 0.1% crystal violet solution for 10 min at RT. Plates were rinsed with water, air dried, and absorption quantified on the Cytation 3 multi-mode imager at 570 nm wavelength. % parasite growth was calculated as 100−[(OD value for infected cultures at each concentration of compound/average OD value for no compound and no parasite infection) × 100]. EC50 values were calculated based on the mean of three biological replicates with each replicate containing two technical replicates.

[4] = in vivo; parameters: species or system mouse; Plasma free: unit not given here; conditions: for Kp / Cmax / MRT / Tmax / AUC(0-t) / AUC(0-inf) / CL/F / half-life: female, CD1, mouse, in vivo; for Cmax / MRT / Tmax / AUC(0-t) / AUC(0-inf) / CL/F / half-life: po, 10 mg/kg/day; for Cmax / MRT / Tmax / AUC(0-t) / AUC(0-inf) / CL/F / half-life / Vd: mouse, 10 mg/kg/day p.o.; for AUC(0-t): read-out: AUC0–24
Procedure: […]. All mice were fed prior to dosing. After dosing, 200 uL of blood was collected at predetermined time points (pre, 1, 3, 7, 24 h). Blood samples were processed for plasma by centrifugation at approximately 4 °C, 4,500 g for 15 min within […]. Plasma samples were stored in polypropylene tubes, quick frozen over dry ice and kept at −70 ± 10 °C until LC/MS/MS analysis. Plasma concentration versus time data was analyzed by non-compartmental approaches using the Phoenix WinNonlin 6.3 software program. Brain tissue samples were taken at day 1, 4, and 8. Tissue samples were processed by centrifugation at approximately 10 °C, 17,000 g for 30 min within 30 min of collection.

## COc1ccc(NC(=O)N2CCCCN3[C@H](CN(C)C)[C@H](c4ccc(C#Cc5ccccc5)cc4)[C@@H]3C2)cc1 [BRD7929]
[1]; GT1, all eight lineages, read-out: EC50 against tachyzoite growth, all lineages
  EC50: < 50 nM
[1]; GT1, strain CTG, type III, N. America, read-out: EC50
  EC50: 31.5 nM
[1]; GT1, strain FOU, type VI, Europe, read-out: EC50
  EC50: 45.1 nM
[1]; GT1, strain GT1, type I, N. America, read-out: EC50
  EC50: 16.1 nM
[1]; GT1, strain MAS, type IV, Europe, read-out: EC50
  EC50: 42 nM
[1]; GT1, strain ME49, type II, Europe, read-out: EC50
  EC50: 49.4 nM
[1]; GT1, strain RH, type I, Europe, read-out: EC50
  EC50: 24.1 nM
[1]; GT1, strain RUB, type V, S. America, read-out: EC50
  EC50: 26.9 nM
[1]; GT1, strain VAND, type X, S. America, read-out: EC50
  EC50: 27.9 nM
[2]; Toxoplasma gondii, read-out: EC50, parent RH-FLuc
  EC50: 14 nM
[2]; concentration 2.222222
  luciferase signal (raw): 5 and 6 and 7 and 8
[2]; concentration 6.666667
  luciferase signal (raw): 5 and 4 and 6
[2]; {}
  luciferase signal (raw, Fig 3B source data): 5
[3]; 0.00152416 uM
  % Parasite Growth: 80.35% and 85.68% and 82.9%
[3]; 0.00457247 uM
  % Parasite Growth: 85.9% and 86.11% and 77.47%
[3]; 0.01371742 uM
  % Parasite Growth: 84.76% and 87.14% and 84.02%
[3]; 0.04115226 uM
  % Parasite Growth: 84.55% and 85.22% and 84.57%
[3]; 0.12345679 uM
  % Parasite Growth: 86.89% and 87% and 83.23%
[3]; 0.37037037 uM
  % Parasite Growth: 70.95% and 85.33% and 85.39%
[3]; 1.11111111 uM
  % Parasite Growth: 77.92% and 85.54% and 61.12%
[3]; 3.33333333 uM
  % Parasite Growth: 63.14%
[3]; 10 uM
  % Parasite Growth: 57.07% and 70.68% and 64.5%
[3]; read-out: EC50 (growth restriction)
  EC50: 2310 nM
[3]; read-out: EC50, L497I
  EC50: 1170 nM
[4]; 10 mg/kg p.o. daily, 8 days, unbound
  free concentration in plasma vs EC50: remained below the EC50 for most of the duration
[4]; 10 mg/kg p.o. daily, mean, time 1:00:00
  Plasma free: 7.292
[4]; 10 mg/kg p.o. daily, mean, time 24:00:00
  Brain free: 24.8595
[4]; brain/plasma, Day 1, read-out: Kp (Cb/Cp)
  Kp: 169
[4]; brain/plasma, Day 4, read-out: Kp (Cb/Cp)
  Kp: 211
[4]; brain/plasma, Day 8, read-out: Kp (Cb/Cp)
  Kp: 577
[4]; Day 1
  Cmax: 153 ng/mL
  MRT: 13.1 h
  Tmax: 18.3 h
  AUC(0-t): 3190 ng·h/mL
[4]; Day 4
  AUC(0-inf): 27700 ng·h/mL
  CL/F: 7.1 mL/min/kg
  Cmax: 330 ng/mL
  MRT: 11.7 h
  Tmax: 4.3 h
  half-life: 64.6 h
  AUC(0-t): 6360 ng·h/mL
  Vd: 32 L/kg
[4]; Day 8
  AUC(0-inf): 20000 ng·h/mL
  CL/F: 10 mL/min/kg
  Cmax: 207 ng/mL
  MRT: 12 h
  Tmax: 5 h
  half-life: 81.3 h
  AUC(0-t): 4390 ng·h/mL
  Vd: 62 L/kg
[4]; unbound brain/plasma, Day 1, read-out: Kpu,u (Cb/Cp)
  Kp: 2.1
[4]; unbound brain/plasma, Day 4, read-out: Kpu,u (Cb/Cp)
  Kp: 2.6
[4]; unbound brain/plasma, Day 8, read-out: Kpu,u (Cb/Cp)
  Kp: 7.2
[4]; read-out: Kp u,u, concentration in brain vs. plasma
  Kp: 2 to 7
[4]; time 3:00:00
  Plasma free: 9.26
[4]; time 7:00:00
  Plasma free: 10.41
[4]; time 24:00:00
  Plasma free: 11.33
[4]; time 72:00:00
  Plasma free: 12.09
[4]; time 73:00:00
  Plasma free: 19.13
[4]; time 75:00:00
  Plasma free: 25.02
[4]; time 79:00:00
  Plasma free: 22.5
[4]; time 96:00:00
  Brain free: 44.7005
  Plasma free: 17.52
[4]; time 168:00:00
  Plasma free: 12.4
[4]; time 169:00:00
  Plasma free: 14.08
[4]; time 171:00:00
  Plasma free: 14.92
[4]; time 175:00:00
  Plasma free: 15.38
[4]; time 192:00:00
  Brain free: 77.3745
  Plasma free: 12.86

Source: PMC8786932, “Bicyclic azetidines target acute and chronic stages of Toxoplasma gondii by inhibiting parasite phenylalanyl t-RNA synthetase” (Nature Communications, 2022)
